Assay results published in ChEMBL document CHEMBL1201862, “PubChem BioAssay data set” (2004).
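48-hour exposure; five concentrations; linearly interpolated endpoints. Here, GI50 denotes the concentration required for 50% inhibition of growth.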 Calls of active or inactive are those of the source. Rule as the data show it: active = GI50 up to about 1.1 µM and inactive = higher.

How the values were obtained:
Assay in all cases: growth of human tumour cells (NCI), 48 h
LOX IMVI = system: LOX IMVI
NCI-H23 = system: NCI-H23
SR = system: SR
RPMI-8226 = system: RPMI-8226
SF-268 = system: SF-268
MDA-MB-435 = system: MDA-MB-435
HOP-92 = system: HOP-92
SF-539 = system: SF-539
CCRF-CEM = system: CCRF-CEM
HOP-62 = system: HOP-62
HCT-15 = system: HCT-15
M14 = system: M14
UACC-62 = system: UACC-62
SK-MEL-2 = system: SK-MEL-2
KM12 = system: KM12
HT-29 = system: HT-29
SK-MEL-5 = system: SK-MEL-5
T47D = system: T47D
Hs-578T = system: Hs-578T
SK-OV-3 = system: SK-OV-3

| SMILES | GI50 (LOX IMVI) | GI50 (NCI-H23) | GI50 (SR) | GI50 (RPMI-8226) | GI50 (SF-268) | GI50 (MDA-MB-435) | GI50 (HOP-92) | GI50 (SF-539) | GI50 (CCRF-CEM) | GI50 (HOP-62) | GI50 (HCT-15) | GI50 (M14) | GI50 (UACC-62) | GI50 (SK-MEL-2) | GI50 (KM12) | GI50 (HT-29) | GI50 (SK-MEL-5) | GI50 (T47D) | GI50 (Hs-578T) | GI50 (SK-OV-3) |
| --- | --- | --- | --- | --- | --- | --- | --- | --- | --- | --- | --- | --- | --- | --- | --- | --- | --- | --- | --- | --- |
| COc1cc(S(=O)(=O)Nc2ccc(-c3csc(/N=C\c4cccc(Oc5ccccc5)c4)n3)cc2)ccc1Cl | 19.3 µM (inactive) | 45.9 µM (inactive) | 21.1 µM (inactive) | 21.6 µM (inactive) | 34.6 µM (inactive) | 30.8 µM (inactive) | 20.1 µM (inactive) | 33.9 µM (inactive) | 32 µM (inactive) | 44.9 µM (inactive) | 35.6 µM | 17 µM (inactive) | 6.44 µM (inactive) | 40.5 µM (inactive) | 31.8 µM (inactive) | 9.75 µM (inactive) | 27.9 µM (inactive) | 16.2 µM (inactive) | 60.4 µM (inactive) | – |
| CCOC(=O)C1(C(C)=O)OC(=O)c2cnccc21 (stereo not given) | > 100 µM (inactive) | > 100 µM (inactive) | > 100 µM (inactive) | > 100 µM (inactive) | > 100 µM (inactive) | > 100 µM (inactive) | > 100 µM (inactive) | > 100 µM (inactive) | > 100 µM (inactive) | – | > 100 µM | > 100 µM (inactive) | > 100 µM (inactive) | > 100 µM (inactive) | > 100 µM (inactive) | > 100 µM (inactive) | > 100 µM (inactive) | > 100 µM (inactive) | > 100 µM (inactive) | > 100 µM (inactive) |
| COc1ccc2c(c1)c1c(n2CCN2CCCCC2)-c2ccccc2CC1 | 21.3 µM (inactive) | 17.7 µM (inactive) | 11.4 µM (inactive) | 14.7 µM (inactive) | 13.8 µM (inactive) | 17.5 µM (inactive) | 15.8 µM (inactive) | 13.6 µM (inactive) | 14 µM (inactive) | 18.6 µM (inactive) | 11.5 µM | 14.7 µM (inactive) | – | 15.2 µM (inactive) | 14 µM (inactive) | 4.48 µM (inactive) | 15.9 µM (inactive) | 15.1 µM (inactive) | 13.5 µM (inactive) | 19.7 µM (inactive) |
| CCOC(=O)C1C=C1C(C)(C)O (stereo not given) | > 10 µM (inactive) | > 10 µM (inactive) | > 10 µM (inactive) | > 10 µM (inactive) | > 10 µM (inactive) | > 10 µM (inactive) | > 10 µM (inactive) | > 10 µM (inactive) | > 10 µM (inactive) | > 10 µM (inactive) | > 10 µM | > 10 µM (inactive) | – | > 10 µM (inactive) | > 10 µM (inactive) | > 10 µM (inactive) | > 10 µM (inactive) | 7.24 µM (inactive) | > 10 µM (inactive) | > 10 µM (inactive) |
| Cc1cc(NCC2CC/C(=C\C=C\c3ccccc3)C2=O)no1 (stereo not given) | > 100 µM (inactive) | > 100 µM (inactive) | 36.9 µM (inactive) | 19.5 µM (inactive) | > 100 µM (inactive) | > 100 µM (inactive) | 78.5 µM (inactive) | > 100 µM (inactive) | > 100 µM (inactive) | > 100 µM (inactive) | 67.3 µM | > 100 µM (inactive) | 32.1 µM (inactive) | – | 41.8 µM (inactive) | > 100 µM (inactive) | 94.4 µM (inactive) | > 100 µM (inactive) | 85.1 µM (inactive) | > 100 µM (inactive) |
| N#C[BH2-][n+]1cn(C2CC(OP(=O)(O)OCC3OC(n4cnc5c(N)ncnc54)CC3O)C(CO)O2)c2nc(N)[nH]c(=O)c21 (stereo not given) | > 100 µM (inactive) | > 100 µM (inactive) | > 100 µM (inactive) | > 100 µM (inactive) | > 100 µM (inactive) | > 100 µM (inactive) | > 100 µM (inactive) | > 100 µM (inactive) | > 100 µM (inactive) | > 100 µM (inactive) | > 100 µM | – | > 100 µM (inactive) | > 100 µM (inactive) | > 100 µM (inactive) | > 100 µM (inactive) | > 100 µM (inactive) | > 100 µM (inactive) | > 100 µM (inactive) | > 100 µM (inactive) |
| O=C(c1ccco1)N(C(=O)N1CCN(c2ccccc2)CC1)S(=O)(=O)c1ccccc1 | – | 23.7 µM (inactive) | 23.8 µM (inactive) | – | 37.7 µM (inactive) | 23.3 µM (inactive) | 27.3 µM (inactive) | 19.1 µM (inactive) | 27 µM (inactive) | 39.1 µM (inactive) | 33.4 µM | 23 µM (inactive) | 27.4 µM (inactive) | 18.5 µM (inactive) | 37.8 µM (inactive) | 35.8 µM (inactive) | 24.4 µM (inactive) | 24.2 µM (inactive) | 32 µM (inactive) | > 100 µM (inactive) |
| COc1cc2c(c(O)c1O)C(=O)C1CCC(=O)N1C2c1cccc2ccccc12 (stereo not given) | – | > 50 µM (inactive) | > 50 µM (inactive) | > 50 µM (inactive) | > 50 µM (inactive) | > 50 µM (inactive) | > 50 µM (inactive) | > 50 µM (inactive) | > 50 µM (inactive) | > 50 µM (inactive) | > 50 µM | > 50 µM (inactive) | 49.9 µM (inactive) | > 50 µM (inactive) | > 50 µM (inactive) | > 50 µM (inactive) | – | > 50 µM (inactive) | > 50 µM (inactive) | > 50 µM (inactive) |
